According to US11008346B2, “Beta-lactamase inhibitors” (priority 2014, dated 2021):
Like-named read-outs stand apart in the source and are kept apart here.

What was measured:
OXA-1 β-lactamase = biological target: T1, OXA-1 β-lactamase (Escherichia coli, UniProt P13661); assay: β-lactamase enzyme inhibition, OXA-1; assay type: biochemical; conditions: Nitrocefin 100 μM, 486 nm; 15 min at 37° C. preincubation; read-out: IC50 OXA-1 (Class D)
T1 construct: made in house; host or cells: E. coli BL21(DE3)
Summary of the method: (§1)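 Native untagged enzymes expressed in E. coli BL21(DE3) and purified by cation exchange and gel filtration were preincubated with inhibitor for 15 min at 37° C. Hydrolysis was followed for 10 min: nitrocefin (100 μM final, 486 nm) for OXA-1 and p99 AmpC, imipenem (300 nm) for KPC-2, cefotaxime (260 nm) for SHV-5; IC50 from initial rates.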

SHV-5 β-lactamase = biological target: T2, SHV-5 β-lactamase (Klebsiella pneumoniae, UniProt P0A3M1); assay: β-lactamase enzyme inhibition, SHV-5; assay type: biochemical
T2 construct: made in house; host or cells: E. coli BL21(DE3)
Summary of the method: as §1

[1] = tested on: P. aeruginosa Ps296 expressing VIM-2; assay: broth microdilution MIC, P. aeruginosa VIM-2; assay type: cell-based; conditions: Fixed Mero (meropenem) 4 μg/mL
Summary of the method: (§2)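 Visual MIC readout after 16-20 hours at 37° C, reflecting compound concentration that restores growth inhibition by a beta-lactam held constant at 4 μg/mL. Compound was titrated 2-fold, 32 to 0.25 μg/mL final, in cation-adjusted Mueller Hinton broth.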

[2] = tested on: K. pneumoniae 156319 expressing KPC-3; assay: broth microdilution MIC, K. pneumoniae KPC-3; assay type: cell-based; conditions: Fixed Mero (meropenem) 4 μg/mL
Summary of the method: as §2

[3] = tested on: E. coli ESBL4 expressing CTX-M-15; assay: broth microdilution MIC, E. coli CTX-M-15; assay type: cell-based; conditions: Fixed CAZ (ceftazidime) 4 μg/mL
Summary of the method: as §2

[4] = tested on: S. aureus MSSA-7 producing penicillinase PC-1; assay: broth microdilution MIC, S. aureus PC-1; assay type: cell-based; conditions: Fixed Pip (piperacillin) 4 μg/mL
Summary of the method: as §2

p99 AmpC β-lactamase = biological target: T3, p99 AmpC β-lactamase (Enterobacter cloacae, UniProt P05364); assay: β-lactamase enzyme inhibition, p99 AmpC; assay type: biochemical
T3 construct: made in house; host or cells: E. coli BL21(DE3)
Summary of the method: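 Native untagged E. cloacae p99 AmpC was expressed in E. coli BL21(DE3) and purified by cation exchange and gel filtration. Enzyme was preincubated with inhibitor at 37°C for 15 min.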

[5] = tested on: E. cloacae 144200 expressing Class C P99 AmpC; assay: broth microdilution MIC, E. cloacae P99; assay type: cell-based; conditions: Fixed CAZ (ceftazidime) 4 μg/mL
Summary of the method: as §2

[6] = tested on: K. pneumoniae A-1797 expressing KPC-2 and VIM-4; assay: broth microdilution MIC, K. pneumoniae KPC-2 and VIM-4; assay type: cell-based; conditions: Fixed Mero (meropenem) 4 μg/mL
Summary of the method: as §2

KPC-2 β-lactamase = biological target: T4, KPC-2 β-lactamase (Klebsiella pneumoniae, UniProt Q9F663); assay: β-lactamase enzyme inhibition, KPC-2; assay type: biochemical
T4 construct: made in house; host or cells: E. coli BL21(DE3)
Summary of the method: as §1

[7] = biological target: T5, VIM-2 metallo β-lactamase (Pseudomonas aeruginosa, UniProt Q9K2N0); assay: β-lactamase enzyme inhibition, VIM-2; assay type: biochemical; conditions: Nitrocefin 100 μM, 486 nm; 15 min at 37° C. preincubation; read-out: IC50 VIM-2 (Class B)
T5 construct: made in house; host or cells: E. coli BL21(DE3)
Summary of the method: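 VIM-2 purified by Q sepharose anion exchange (50 mM Hepes pH 7.5, 0-600 mM NaCl gradient, two runs, >90% purity). Enzyme preincubated with inhibitor 15 min at 37° C; nitrocefin 100 μM final, absorbance at 486 nm followed 10 min. IC50 from initial hydrolysis rates versus inhibitor-free controls.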

[8] = imipenem substrate, 300 nm, 15 min at 37° C. preincubation, read-out: IC50 KPC-2 (Class A)

T1 sequence (P13661 26-276): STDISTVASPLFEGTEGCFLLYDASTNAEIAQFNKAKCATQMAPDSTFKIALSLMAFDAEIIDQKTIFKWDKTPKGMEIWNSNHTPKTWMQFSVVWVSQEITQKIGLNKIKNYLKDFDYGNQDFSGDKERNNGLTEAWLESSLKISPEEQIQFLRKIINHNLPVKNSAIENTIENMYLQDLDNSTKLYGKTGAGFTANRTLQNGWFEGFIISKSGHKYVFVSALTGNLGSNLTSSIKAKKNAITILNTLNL
T3 sequence (P05364 21-381): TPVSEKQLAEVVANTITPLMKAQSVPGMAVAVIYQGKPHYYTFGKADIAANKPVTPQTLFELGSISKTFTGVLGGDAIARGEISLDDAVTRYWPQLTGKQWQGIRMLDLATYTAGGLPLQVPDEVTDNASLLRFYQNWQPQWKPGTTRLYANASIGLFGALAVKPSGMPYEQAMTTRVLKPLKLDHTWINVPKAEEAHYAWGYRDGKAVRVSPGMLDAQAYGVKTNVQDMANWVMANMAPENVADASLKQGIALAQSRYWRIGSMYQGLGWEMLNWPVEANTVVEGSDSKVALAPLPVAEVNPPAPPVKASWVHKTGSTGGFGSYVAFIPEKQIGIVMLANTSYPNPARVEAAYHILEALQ
T2 sequence (P0A3M1 22-286): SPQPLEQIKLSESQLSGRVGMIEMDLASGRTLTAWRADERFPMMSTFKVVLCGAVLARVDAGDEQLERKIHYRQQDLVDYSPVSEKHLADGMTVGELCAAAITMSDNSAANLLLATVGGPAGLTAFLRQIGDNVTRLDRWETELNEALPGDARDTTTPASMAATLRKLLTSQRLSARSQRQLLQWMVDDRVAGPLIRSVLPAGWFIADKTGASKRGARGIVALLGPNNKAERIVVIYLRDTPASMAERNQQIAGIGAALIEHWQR
T4 sequence (Q9F663 25-293, looked up): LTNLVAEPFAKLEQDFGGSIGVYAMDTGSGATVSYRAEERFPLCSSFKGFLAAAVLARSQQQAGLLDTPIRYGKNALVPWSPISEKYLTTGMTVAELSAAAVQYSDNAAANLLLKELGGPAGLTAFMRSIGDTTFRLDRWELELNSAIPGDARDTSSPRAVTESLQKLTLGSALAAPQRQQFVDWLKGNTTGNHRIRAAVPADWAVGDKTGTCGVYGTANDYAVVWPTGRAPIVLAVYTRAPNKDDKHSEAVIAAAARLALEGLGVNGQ

Structure (SMILES)	IC50 (OXA-1 β-lactamase) [nM]	IC50 (SHV-5 β-lactamase) [nM]	MIC of exemplary compounds in presence of fixed β-lactams, P. aerug. Ps296 VIM-2 [1]	MIC of exemplary compounds in presence of fixed β-lactams, K.P. 156319 KPC-3 [2]	MIC of exemplary compounds in presence of fixed β-lactams, E. coli ESBL4 CTX-M-15 [3]	MIC of exemplary compounds in presence of fixed β-lactams, S. aureus MSSA-7 PC-1 [4]	IC50 (p99 AmpC β-lactamase) [nM]	MIC of exemplary compounds in presence of fixed β-lactams, E. cl. 144200 p99 AmpC [5]	MIC of exemplary compounds in presence of fixed β-lactams, K.P. A-1797 KPC-2 VIM-4 [6]	IC50 (KPC-2 β-lactamase; [8]) [nM]	IC50 [7] [nM]	IC50 (KPC-2 β-lactamase) [nM]
O=C(CCc1cocn1)N[C@H]1Cc2cccc(C(=O)O)c2OB1O [Example 45, (R)-2-Hydroxy-3-(3-oxazol-4-yl-propionylamino)-3,4-dihydro-2H-benzo[e][1,2]oxaborinine-8-carboxylic acid]	< 100	< 100	C (C represents the MIC in the presence of ≤4 g/mL of a β-lactamase inhibitor)	C (C represents the MIC in the presence of ≤4 g/mL of a β-lactamase inhibitor)	C (C represents the MIC in the presence of ≤4 g/mL of a β-lactamase inhibitor)	C (C represents the MIC in the presence of ≤4 g/mL of a β-lactamase inhibitor)	< 100	C (C represents the MIC in the presence of ≤4 g/mL of a β-lactamase inhibitor)	B (B represents the MIC in the presence of between 8 and 32 g/mL of a β-lactamase inhibitor)	< 100	1000 to 10000	
CS(=O)(=O)NCCC(=O)N[C@H]1Cc2cccc(C(=O)O)c2OB1O [Example 22, (R)-2-Hydroxy-3-(3-methanesulfonylamino-propionylamino)-3,4-dihydro-2H-benzo[e][1,2]oxaborinine-8-carboxylic acid]	< 100	< 100	B (B represents the MIC in the presence of between 8 and 32 g/mL of a β-lactamase inhibitor)	C (C represents the MIC in the presence of ≤4 g/mL of a β-lactamase inhibitor)	C (C represents the MIC in the presence of ≤4 g/mL of a β-lactamase inhibitor)	C (C represents the MIC in the presence of ≤4 g/mL of a β-lactamase inhibitor)	< 100	C (C represents the MIC in the presence of ≤4 g/mL of a β-lactamase inhibitor)	B (B represents the MIC in the presence of between 8 and 32 g/mL of a β-lactamase inhibitor)		1000 to 10000	< 100
CC(C)CC(=O)N[C@H]1Cc2cccc(C(=O)O)c2OB1O [Example 6, (R)-2-Hydroxy-3-(3-methyl-butyrylamino)-3,4-dihydro-2H-benzo[e][1,2]oxaborinine-8-carboxylic acid]	< 100	< 100	B (B represents the MIC in the presence of between 8 and 32 g/mL of a β-lactamase inhibitor)	C (C represents the MIC in the presence of ≤4 g/mL of a β-lactamase inhibitor)	C (C represents the MIC in the presence of ≤4 g/mL of a β-lactamase inhibitor)	C (C represents the MIC in the presence of ≤4 g/mL of a β-lactamase inhibitor)	< 100	C (C represents the MIC in the presence of ≤4 g/mL of a β-lactamase inhibitor)	A (A represents an MIC of the fixed β-lactam antibiotic in the presence of >32 g/mL of a β-lactamase inhibitor)	< 100	1000 to 10000	
